Assay results from US9023405B2, “Pharmaceutical composition using stryphnodendron extracts for treating HPV infections” (priority 2010, dated 2015).

Assays:
[1] = test system: human papillomavirus (HPV) lesions; details: cited from earlier work; for rate of local relapses: direct application on moles
skin incisions = experiment: healing tests (skin incisions); format: in vivo, albino rabbits of the New Zealand lineage; details: daily topical treatment of incisions
Text: Thirty-six healthy adult albino rabbits of the New Zealand lineage weighing between 1.250 and 1.700 Kg were used for the healing tests. The animals were shaved and housed in individual cages at room temperature, in 12-hour light-dark cycles, with PURINA animal food and water ad libitum. The rabbits were anesthetized with local administration of lidocaine hydrochloride and inhalation of sulfuric ether. Four incisions were made on the skin of each rabbit until the subcutaneous layer was reached. A distance of 3 cm was maintained between each incision. The animals were divided into three groups. The group A, control, received NaCl 0.9% solution during the 14 days of treatment period. Group B was treated with rifamycin and group C received the ethanolic extract of barbatiman barks, resuspended in water (0.1 g mL^−1). The incisions remained open, and the rabbits were treated from the first day of the incision until the 14th day after the incision was made. On the 7th day, pieces were removed from ⅓ of the rabbits and part of the liver for histological analysis, and the animals were then killed. On 14th day, the remaining rabbits were killed, and the pieces and part of the liver were removed for histological analysis. […]

## O=C(O)C(Cl)(Cl)Cl [trichloroacetic acid, trichloroacetic acids]
[1]
  rate of local relapses: around 30%

## CO[C@H]1/C=C/O[C@@]2(C)Oc3c(C)c(O)c4c(O)c(cc(O)c4c3C2=O)NC(=O)/C(C)=C\C=C\[C@H](C)[C@H](O)[C@@H](C)[C@@H](O)[C@@H](C)[C@H](OC(C)=O)[C@@H]1C [rifamycin]
Skin incisions
  purulent secretion: present purulent secretion

## O=C(O)C(Cl)Cl [dichloroacetic acid, dichloroacetic]
[1]
  rate of local relapses: around 30%

## CC(C)Cn1cnc2c(N)nc3ccccc3c21 [Imiquimod]
[1]; condyloma acuminata of external and perianal genitalia
  cure rate: 50-56%
[1]; in vivo
  patients with headache, myalgia, and flu-like symptoms: less than 5%
